According to the supplement of paper PMC10307832:

How the values were obtained:
Assay in all cases: relative viability (nuclei count vs DMSO), 5 days (fraction); higher = more cells survive
[1] = compound: COc1ncc(-c2ccc3nccc(-c4ccnnc4)c3c2)cc1NS(=O)(=O)c1ccc(F)cc1F [Omipalisib]
How it was run: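 After an overnight hold at 37 °C, lung cancer cell lines in 1536-well plates were pinned with five library-drug doses (not always all listed), each √10 from the next, on vehicle-anchored plates. The cells stayed 5 days without fresh medium, then a one-step fix, permeabilisation and Hoechst stain preceded 4× imaging and MetaXpress nuclear counts. A plate passed only with control CV under 25% and at least one doubling. Viability is the median, over plates, of treated-well nuclei relative to vehicle-well nuclei.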

[2] = compound: COc1ncc(-c2ccc3nccc(-c4ccnnc4)c3c2)cc1NS(=O)(=O)c1ccc(F)cc1F [Omipalisib] + CCNC(=O)c1noc(-c2cc(C(C)C)c(O)cc2O)c1-c1ccc(CN2CCOCC2)cc1 [Luminespib] (partner 0.01 µM)
How it was run: (§1)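 A single step with final 0.05% Triton X-100, 1% formaldehyde and 1 ug/ml Hoechst fixed the cells and stained nuclei 5 days after treatment. Lung cancer cell lines in 1536-well plates had been treated by pin tool the day after seeding with one drug alone or a fixed anchor-drug dose plus five library-drug doses (not always all listed) in √10 steps, and nuclei were counted on 4× images. Relative viability is the ratio of nuclei in treated wells to nuclei in vehicle wells, taken as the median of duplicate plates.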

[3] = compound: COc1ncc(-c2ccc3nccc(-c4ccnnc4)c3c2)cc1NS(=O)(=O)c1ccc(F)cc1F [Omipalisib] + COc1cc2c(Oc3ccc(NC(=O)C4(C(=O)Nc5ccc(F)cc5)CC4)cc3F)ccnc2cc1OCCCN1CCOCC1 [Foretinib] (partner 0.25 µM)
How it was run: as §1

[4] = compound: COc1ncc(-c2ccc3nccc(-c4ccnnc4)c3c2)cc1NS(=O)(=O)c1ccc(F)cc1F [Omipalisib] + COc1cccc2cc(-c3nc([C@H]4CC[C@H](C(=O)O)CC4)n4ncnc(N)c34)[nH]c12 [OSI-027] (partner 0.5 µM)
How it was run: as §1

[5] = compound: COc1ncc(-c2ccc3nccc(-c4ccnnc4)c3c2)cc1NS(=O)(=O)c1ccc(F)cc1F [Omipalisib] + Cc1cc(Nc2cc(N3CCN(C)CC3)nc(Sc3ccc(NC(=O)C4CC4)cc3)n2)n[nH]1 [Tozasertib] (partner 0.1 µM)
How it was run: as §1

[6] = compound: COc1ncc(-c2ccc3nccc(-c4ccnnc4)c3c2)cc1NS(=O)(=O)c1ccc(F)cc1F [Omipalisib] + Cc1nc(Nc2ncc(C(=O)Nc3c(C)cccc3Cl)s2)cc(N2CCN(CCO)CC2)n1 [Dasatinib] (partner 0.075 µM)
How it was run: as §1

[7] = compound: COc1ncc(-c2ccc3nccc(-c4ccnnc4)c3c2)cc1NS(=O)(=O)c1ccc(F)cc1F [Omipalisib] + N=C(N)NC(=N)NCCc1ccccc1 [Phenformin] (partner 250 µM)
How it was run: as §1

[8] = compound: COc1ncc(-c2ccc3nccc(-c4ccnnc4)c3c2)cc1NS(=O)(=O)c1ccc(F)cc1F [Omipalisib] + CC(=O)Nc1cccc(-n2c(=O)n(C3CC3)c(=O)c3c(Nc4ccc(I)cc4F)n(C)c(=O)c(C)c32)c1 [Trametinib] (partner 0.02 µM)
How it was run: as §1

[9] = compound: COc1ncc(-c2ccc3nccc(-c4ccnnc4)c3c2)cc1NS(=O)(=O)c1ccc(F)cc1F [Omipalisib] + CC(=O)c1c(C)c2cnc(Nc3ccc(N4CCNCC4)cn3)nc2n(C2CCCC2)c1=O [Palbociclib] (partner 0.5 µM)
How it was run: as §1

[10] = compound: COc1ncc(-c2ccc3nccc(-c4ccnnc4)c3c2)cc1NS(=O)(=O)c1ccc(F)cc1F [Omipalisib] + NC(=O)Nc1cc(-c2cccc(F)c2)sc1C(=O)N[C@H]1CCCNC1 [AZD7762] (partner 0.2 µM)
How it was run: as §1

[11] = compound: COc1ncc(-c2ccc3nccc(-c4ccnnc4)c3c2)cc1NS(=O)(=O)c1ccc(F)cc1F [Omipalisib] + Nc1nc2[nH]cc(CCc3ccc(C(=O)N[C@@H](CCC(=O)O)C(=O)O)cc3)c2c(=O)[nH]1 [Pemetrexed] (partner 0.2 µM)
How it was run: as §1

[12] = compound: COc1ncc(-c2ccc3nccc(-c4ccnnc4)c3c2)cc1NS(=O)(=O)c1ccc(F)cc1F [Omipalisib] + Nc1ncn([C@H]2C[C@H](O)[C@@H](CO)O2)c(=O)n1 [Decitabine] (partner 2 µM)
How it was run: as §1

[13] = compound: COc1ncc(-c2ccc3nccc(-c4ccnnc4)c3c2)cc1NS(=O)(=O)c1ccc(F)cc1F [Omipalisib] + O=C(CCCCCCC(=O)Nc1ccccc1)NO [Vorinostat] (partner 1 µM)
How it was run: as §1

[14] = compound: COc1ncc(-c2ccc3nccc(-c4ccnnc4)c3c2)cc1NS(=O)(=O)c1ccc(F)cc1F [Omipalisib] + O=C(c1cc(Cc2n[nH]c(=O)c3ccccc23)ccc1F)N1CCN(C(=O)C2CC2)CC1 [Olaparib] (partner 8 µM)
How it was run: as §1

[15] = compound: COc1ncc(-c2ccc3nccc(-c4ccnnc4)c3c2)cc1NS(=O)(=O)c1ccc(F)cc1F [Omipalisib] + CC(C)C[C@H](NC(=O)[C@H](Cc1ccccc1)NC(=O)c1cnccn1)B(O)O [Bortezomib] (partner 0.002 µM)
How it was run: as §1

[16] = compound: COc1ncc(-c2ccc3nccc(-c4ccnnc4)c3c2)cc1NS(=O)(=O)c1ccc(F)cc1F [Omipalisib] + CC1(C)CCC(c2ccc(Cl)cc2)=C(CN2CCN(c3ccc(C(=O)NS(=O)(=O)c4ccc(N[C@H](CCN5CCOCC5)CSc5ccccc5)c(S(=O)(=O)C(F)(F)F)c4)cc3)CC2)C1 [Navitoclax] (partner 0.5 µM)
How it was run: as §1

[17] = compound: COc1ncc(-c2ccc3nccc(-c4ccnnc4)c3c2)cc1NS(=O)(=O)c1ccc(F)cc1F [Omipalisib] + CS(=O)(=O)CCNCc1ccc(-c2ccc3ncnc(Nc4ccc(OCc5cccc(F)c5)c(Cl)c4)c3c2)o1 [Lapatinib] (partner 2 µM)
How it was run: as §1

[18] = compound: COc1ncc(-c2ccc3nccc(-c4ccnnc4)c3c2)cc1NS(=O)(=O)c1ccc(F)cc1F [Omipalisib] + CS(=O)(=O)N1CCN(Cc2cc3nc(-c4cccc5[nH]ncc45)nc(N4CCOCC4)c3s2)CC1 [Pictilisib] (partner 1 µM)
How it was run: as §1

[19] = compound: COc1ncc(-c2ccc3nccc(-c4ccnnc4)c3c2)cc1NS(=O)(=O)c1ccc(F)cc1F [Omipalisib] + C[C@@H](Oc1cc(-c2cnn(C3CCNCC3)c2)cnc1N)c1c(Cl)ccc(F)c1Cl [Crizotinib] (partner 1 µM)
How it was run: as §1

[20] = compound: COc1ncc(-c2ccc3nccc(-c4ccnnc4)c3c2)cc1NS(=O)(=O)c1ccc(F)cc1F [Omipalisib] + C[C@]1(O)C[C@@H](c2nc(-c3ccc4ccc(-c5ccccc5)nc4c3)c3c(N)nccn32)C1 [Linsitinib] (partner 1 µM)
How it was run: as §1

[21] = compound: COc1ncc(-c2ccc3nccc(-c4ccnnc4)c3c2)cc1NS(=O)(=O)c1ccc(F)cc1F [Omipalisib] + Cc1nc(NC(=O)N2CCC[C@H]2C(N)=O)sc1-c1ccnc(C(C)(C)C(F)(F)F)c1 [Alpelisib] (partner 2 µM)
How it was run: as §1

Cell Line: NCI-H1623
- relative viability ([1]; 0.0003 µM): 0.855
- relative viability ([1]; 0.003 µM): 0.553
- relative viability ([1]; 0.03 µM): 0.359
- relative viability ([2]; first compound 0.0003 µM): 0.399
- relative viability ([2]; first compound 0.003 µM): 0.287
- relative viability ([2]; first compound 0.03 µM): 0.292
- relative viability ([3]; first compound 0.0003 µM): 0.76
- relative viability ([3]; first compound 0.003 µM): 0.727
- relative viability ([3]; first compound 0.03 µM): 0.316
- relative viability ([4]; first compound 0.0003 µM): 0.398
- relative viability ([4]; first compound 0.003 µM): 0.338
- relative viability ([4]; first compound 0.03 µM): 0.294
- relative viability ([5]; first compound 0.0003 µM): 0.409
- relative viability ([5]; first compound 0.003 µM): 0.354
- relative viability ([5]; first compound 0.03 µM): 0.273
- relative viability ([6]; first compound 0.0003 µM): 0.488
- relative viability ([6]; first compound 0.003 µM): 0.466
- relative viability ([6]; first compound 0.03 µM): 0.266
- relative viability ([7]; first compound 0.0003 µM): 0.479
- relative viability ([7]; first compound 0.003 µM): 0.607
- relative viability ([7]; first compound 0.03 µM): 0.247

Cell Line: NCI-H1648
- relative viability ([1]; 0.0003 µM): 0.913
- relative viability ([1]; 0.003 µM): 0.504
- relative viability ([1]; 0.03 µM): 0.278
- relative viability ([8]; first compound 0.0003 µM): 0.362
- relative viability ([8]; first compound 0.003 µM): 0.407
- relative viability ([8]; first compound 0.03 µM): 0.249
- relative viability ([9]; first compound 0.0003 µM): 0.277
- relative viability ([9]; first compound 0.003 µM): 0.23
- relative viability ([9]; first compound 0.03 µM): 0.29
- relative viability ([4]; first compound 0.0003 µM): 0.253
- relative viability ([4]; first compound 0.003 µM): 0.291
- relative viability ([4]; first compound 0.03 µM): 0.26
- relative viability ([5]; first compound 0.0003 µM): 0.322
- relative viability ([5]; first compound 0.003 µM): 0.408
- relative viability ([5]; first compound 0.03 µM): 0.184
- relative viability ([10]; first compound 0.0003 µM): 0.644
- relative viability ([10]; first compound 0.003 µM): 0.843
- relative viability ([10]; first compound 0.03 µM): 0.386
- relative viability ([11]; first compound 0.0003 µM): 0.754
- relative viability ([11]; first compound 0.003 µM): 0.619
- relative viability ([11]; first compound 0.03 µM): 0.413
- relative viability ([12]; first compound 0.0003 µM): 0.445
- relative viability ([12]; first compound 0.003 µM): 0.363
- relative viability ([12]; first compound 0.03 µM): 0.356
- relative viability ([13]; first compound 0.0003 µM): 0.548
- relative viability ([13]; first compound 0.003 µM): 0.396
- relative viability ([13]; first compound 0.03 µM): 0.228
- relative viability ([14]; first compound 0.0003 µM): 0.384
- relative viability ([14]; first compound 0.003 µM): 0.392
- relative viability ([14]; first compound 0.03 µM): 0.202

Cell Line: NCI-H1703
- relative viability ([1]; 0.0003 µM): 0.777
- relative viability ([1]; 0.003 µM): 0.572
- relative viability ([1]; 0.03 µM): 0.234
- relative viability ([15]; first compound 0.0003 µM): 0.323
- relative viability ([15]; first compound 0.003 µM): 0.268
- relative viability ([15]; first compound 0.03 µM): 0.153
- relative viability ([16]; first compound 0.0003 µM): 0.713
- relative viability ([16]; first compound 0.003 µM): 0.651
- relative viability ([16]; first compound 0.03 µM): 0.24
- relative viability ([3]; first compound 0.0003 µM): 0.314
- relative viability ([3]; first compound 0.003 µM): 0.37
- relative viability ([3]; first compound 0.03 µM): 0.301
- relative viability ([17]; first compound 0.0003 µM): 0.879
- relative viability ([17]; first compound 0.003 µM): 0.715
- relative viability ([17]; first compound 0.03 µM): 0.293
- relative viability ([18]; first compound 0.0003 µM): 0.218
- relative viability ([18]; first compound 0.003 µM): 0.238
- relative viability ([18]; first compound 0.03 µM): 0.202
- relative viability ([19]; first compound 0.0003 µM): 0.707
- relative viability ([19]; first compound 0.003 µM): 0.418
- relative viability ([19]; first compound 0.03 µM): 0.128
- relative viability ([20]; first compound 0.0003 µM): 0.596
- relative viability ([20]; first compound 0.003 µM): 0.298
- relative viability ([20]; first compound 0.03 µM): 0.171
- relative viability ([21]; first compound 0.0003 µM): 0.428
- relative viability ([21]; first compound 0.003 µM): 0.273
- relative viability ([21]; first compound 0.03 µM): 0.179
- relative viability ([10]; first compound 0.0003 µM): 0.152
- relative viability ([10]; first compound 0.003 µM): 0.115
- relative viability ([10]; first compound 0.03 µM): 0.111
- relative viability ([14]; first compound 0.0003 µM): 0.28
- relative viability ([14]; first compound 0.003 µM): 0.279
- relative viability ([14]; first compound 0.03 µM): 0.214
